Results: patent publication US20250179103A1, “6-OXODECAHYDROPYRROLO[1,2-A][1,5]DIAZOCINE AND 6-OXODECAHYDRO-4H-PYRROLO[2,1-D][1,5]THIAZOCINE DERIVATIVES AS STAT3 AND STAT6 MODULATORS FOR THE TREATMENT OF CANCER AND INFLAMMATORY CONDITIONS” (Recludix Pharma, Inc., priority 2022, published 2025)

These compounds were tested on pY641-STAT6 in Peripheral Blood Mononuclear Cells (PBMC) (assay: MSD-pSTAT-PBMC Assay (pSTAT6, IL-4 stimulated)). Conditions: Homo sapiens, compound 3 hrs, then 1 ng/mL IL-4 for 10 min.
Assay type: cell-based, Human
From the text: Cryopreserved Peripheral Blood Mononuclear Cells (PBMC) are from AllCells. Recombinant Human IL-4 and IL-6 are from Peprotech. Mouse monoclonal anti-STAT3 antibody, rabbit monoclonal anti-pY705-STAT3 antibody, rabbit monoclonal Anti-pY641-STAT6 antibody, and lysis buffer are from Cell Signaling Technology (CST). Mouse monoclonal anti-STAT6 antibody is from BioLegend. Assay plates, blocker, and anti-rabbit secondary antibody are from Meso Scale Discovery (MSD).
Cryopreserved PBMCs were thawed out and allowed to recover overnight in IMDM+10% heat-inactivated FBS prior to plating 50,000 (STAT3) or 25,000 (STAT6) cells per well in 96-well U-bottom tissue culture plates. Cells were treated with compound for 3 hrs, then stimulated with 10 ng/mL IL-6 (STAT3) or 1 ng/mL IL-4 (STAT6) for 10 min. Cells were then spun down and washed with ice-cold PBS prior to lysing the cell pellet with 1× lysis buffer (CST) with 1×HALT protease and phosphatase inhibitor cocktail (Thermo). Lysates were transferred to and incubated overnight at 4° C. with shaking in QuickPlex 96-well high bind assay plates (MSD) pre-coated overnight with 30 μL per well of 0.6 μg/mL mouse monoclonal anti-STAT3 antibody (STAT3) or 2 μg/mL mouse monoclonal anti-STAT6 antibody (STAT6) in 1×PBS, and pre-blocked for 1 hour with 3% Blocker-A (MSD). Captured protein in the assay plates were then washed and probed with 25 μL per well of 0.25 μg/ml rabbit monoclonal anti-pY705-STAT3 antibody (STAT3) or […] rabbit monoclonal Anti-pY641-STAT6 antibody (STAT6) in 1% Blocker-A for 1 hour at room temperature with shaking, then washed and probed with 25 ul per well of 1 ug/ml Sulfo-TAG Labeled Goat Anti-Rabbit Antibody (MSD) in 1% Blocker-A for 1 hour at room temperature with shaking. Assay plates were then washed and 150 μL of 1× Read Buffer-T (MSD) was added to each well prior to reading on an SQ120 MSD Plate Reader. Assay signal from each sample was subtracted by the signal from unstimulated control wells and normalized to DMSO control wells. IC50 values were calculated using Graph Pad Prism Dose-Response Nonlinear Regression with variable slope. For both pSTAT3 and pSTAT6 A=≤100 nM; B=>100-1000 nM; C=>1000-3000 nM; and D=>3 μM.

**Q.** For `CCCOC(=O)[C@H](C)NP(=O)(Oc1ccccc1)[C@@H](F)c1ccc2ccc(C(=O)N[C@H]3CN(C(=O)c4noc5ccc(C)cc45)CC[C@H]4CC[C@@H](C(=O)N5CC6CCC(C5)O6)N4C3=O)cc2c1` (stereo partly drawn) [Compound 416, propyl (((1R)-(7-(((5S,8S,10aR)-8-(8-oxa-3-azabicyclo [3.2.1]octane-3-carbonyl)-3-(5-methylbenzo [d]isoxazole-3-carbonyl)-6-oxodeca-hydropyrrolo [1,2-a][1,5]diazocin-5-yl)carbamoyl)naphthalen-2-yl)fluoromethyl) (phenoxy)phosphoryl)-L-alaninate], which IC50 is on record?
**A.** ≤ 0.1 µM

**Q.** How did the IC50 turn out when `CCCOC(=O)[C@H](C)NP(=O)(Oc1ccccc1)[C@H](F)c1ccc2ccc(C(=O)N[C@H]3CN(C(=O)c4noc5ccc(C)cc45)CC[C@H]4CC[C@@H](C(=O)N5C[C@@H](c6ccn(C)c(=O)c6)CC56CC6)N4C3=O)cc2c1` (stereo partly drawn) [Compound 417, propyl (((S)-fluoro(7-(((5S,8S,10a R)-8-((R)-6-(1-methyl-2-oxo-1,2-dihydro-pyridin-4-yl)-4-azaspiro[2.4]heptane-4-carbonyl)-3-(5-methylbenzo [d]isoxazole-3-carbonyl)-6-oxodeca-hydropyrrolo [1,2-a][1,5]diazocin-5-yl)carbamoyl)naphthalen-2-yl)methyl) (phenoxy)phosphoryl)-L-alaninate] was run?
**A.** ≤ 0.1 µM

**Q.** Which IC50 does the source give for `CCCOC(=O)[C@H](C)NP(=O)(Oc1ccccc1)[C@@H](F)c1ccc2ccc(C(=O)N[C@H]3CN(C(=O)c4noc5ccc(C)cc45)CC[C@H]4CC[C@@H](C(=O)N5C(=O)N(c6cccnc6)C(=O)C56CC6)N4C3=O)cc2c1` (stereo partly drawn) [Compound 418, propyl (((R)-(7-(((5S,8S,10aR)-8-(5,7-dioxo-6-(pyridin-3-yl)-4,6-diazaspiro [2.4]heptane-4-carbonyl)-3-(5-methylbenzo [d]isoxazole-3-carbonyl)-6-oxodeca-hydropyrrolo [1,2a][1,5]diazocin-5-yl)carbamoyl)naphthalen-2-yl)fluoromethyl) (phenoxy)phosphoryl)-L-alaninate] here?
**A.** ≤ 0.1 µM

**Q.** For `CCCOC(=O)[C@H](C)NP(=O)(Oc1ccccc1)[C@H](F)c1ccc2ccc(C(=O)N[C@H]3CN(C(=O)c4noc5ccc(C)cc45)CC[C@H]4CC[C@@H](C(=O)N5C[C@H](c6ccn(C)c(=O)c6)CC56CC6)N4C3=O)cc2c1` (stereo partly drawn) [Compound 419, propyl (((S)-fluoro(7-(((5S,8S,10aR)-8-((S)-6-(1-methyl-2-oxo-1,2-dihydropyridin-4-yl)-4-azaspiro[2.4]heptane-4-carbonyl)-3-(5-methylbenzo [d]isoxazole-3-carbonyl)-6-oxodeca-hydropyrrolo [1,2-a][1,5]diazocin-5-yl)carbamoyl)naphthalen-2-yl)methyl) (phenoxy)phosphoryl)-L-alaninate], which IC50 is on record?
**A.** ≤ 0.1 µM

**Q.** How did the IC50 turn out when `CCCOC(=O)[C@H](C)NP(=O)(Oc1ccccc1)[C@@H](F)c1ccc2ccc(C(=O)N[C@H]3CN(C(=O)c4noc5ccc(C)cc45)CC[C@H]4CC[C@@H](C(=O)N5C[C@@H](c6ccn(C)c(=O)c6)CC56CC6)N4C3=O)cc2c1` (stereo partly drawn) [Compound 420, propyl (((R)-fluoro(7-(((5S,8S,10aR)-8-((R)-6-(1-methyl-2-oxo-1,2-dihydropyridin-4-yl)-4-azaspiro[2.4]heptane-4-carbonyl)-3-(5-methylbenzo [d]isoxazole-3-carbonyl)-6-oxodeca-hydropyrrolo [1,2-a][1,5]diazocin-5-yl)carbamoyl)naphthalen-2-yl)methyl) (phenoxy)phosphoryl)-L-alaninate] was run?
**A.** ≤ 0.1 µM

**Q.** For `CCCOC(=O)[C@H](C)NP(=O)(Oc1ccccc1)[C@@H](F)c1ccc2ccc(C(=O)N[C@H]3CN(C(=O)c4noc5ccc(C)cc45)CC[C@H]4CC[C@@H](C(=O)N5C[C@H](c6ccn(C)c(=O)c6)CC56CC6)N4C3=O)cc2c1` (stereo partly drawn) [Compound 421, propyl (((R)-fluoro(7-(((5S,8S,10aR)-8-((S)-6-(1-methyl-2-oxo-1,2-dihydropyridin-4-yl)-4-azaspiro [2.4]heptane-4-carbonyl)-3-(5-methylbenzo [d]isoxazole-3-carbonyl)-6-oxodeca-hydropyrrolo [1,2-a] [1,5]diazocin-5-yl)carbamoyl)naphthalen-2-yl)methyl) (phenoxy)phosphoryl)-L-alaninate], which IC50 is on record?
**A.** ≤ 0.1 µM

**Q.** How did the IC50 turn out when `CCCOC(=O)[C@H](C)NP(=O)(Oc1ccccc1)C(F)c1ccc2ccc(C(=O)N[C@H]3CCN(C(=O)c4cc(C)cc(Cl)c4)C[C@H]4CC[C@@H](C(=O)N5CCOCC5)N4C3=O)cc2c1` (stereo partly drawn) [Compound 422, propyl (((7-(((5S,8S,10aR)-2-(3-chloro-5-methylbenzoyl)-8-(morpholine-4-carbonyl)-6-oxodeca-hydropyrrolo [1,2-a][1,4]diazocin-5-yl)carbamoyl)naphthalen-2-yl)fluoromethyl) (phenoxy)phosphoryl)-L-alaninate] was run?
**A.** 1 to 3 µM

**Q.** `CCCOC(=O)[C@H](C)NP(=O)(Oc1ccccc1)C(F)c1ccc2ccc(C(=O)N[C@H]3CN(C(=O)c4ncn5ccccc45)CC[C@H]4CC[C@@H](C(=O)N5CCOCC5)N4C3=O)cc2c1` (stereo partly drawn) [Compound 423, propyl ((fluoro(7-(((5S,8S,10aR)-3-(imidazo[1,5-a]pyridine-1-carbonyl)-8-(morpholine-4-carbonyl)-6-oxodecahydro-pyrrolo [1,2-a][1,5]diazocin-5-yl)carbamoyl)naphthalen-2-yl)methyl) (phenoxy)phosphoryl)-L-alaninate] was tested. Which IC50 did it give?
**A.** > 3 µM

**Q.** How did the IC50 turn out when `CCCOC(=O)[C@H](C)NP(=O)(Oc1ccccc1)C(F)c1ccc2ccc(C(=O)N[C@H]3CN(C(=O)c4noc5cc(OC)ccc45)CC[C@H]4CC[C@@H](C(=O)N5CCOCC5)N4C3=O)cc2c1` (stereo partly drawn) [Compound 424, propyl ((fluoro(7-(((5S,8S,10aR)-3-(6-methoxybenzo[d]isoxazole-3-carbonyl)-8-(morpholine-4-carbonyl)-6-oxodeca-hydropyrrolo [1,2-a][1,5]diazocin-5-yl)carbamoyl)naphthalen-2-yl)methyl) (phenoxy)phosphoryl)-L-alaninate] was run?
**A.** 1 to 3 µM

**Q.** Which IC50 does the source give for `CCCOC(=O)[C@H](C)NP(=O)(Oc1ccccc1)C(F)c1ccc2ccc(C(=O)N[C@H]3CN(C(=O)c4noc5c4CCCC5)CC[C@H]4CC[C@@H](C(=O)N5CCOCC5)N4C3=O)cc2c1` (stereo partly drawn) [Compound 425, propyl ((fluoro(7-(((5S,8S,10aR)-8-(morpholine-4-carbonyl)-6-oxo-3-(4,5,6,7-tetrahydro-benzo[d]isoxazole-3-carbonyl)decahydropyrrolo [1,2-a][1,5]diazocin-5-yl)carbamoyl)naphthalen-2-yl)methyl) (phenoxy)phosphoryl)-L-alaninate] here?
**A.** 1 to 3 µM

**Q.** `CCCOC(=O)[C@H](C)NP(=O)(Oc1ccccc1)C(F)c1ccc2ccc(C(=O)N[C@H]3CN(C(=O)c4cc5ncccn5n4)CC[C@H]4CC[C@@H](C(=O)N5CCOCC5)N4C3=O)cc2c1` (stereo partly drawn) [Compound 426, propyl ((fluoro(7-(((5S,8S,10aR)-8-(morpholine-4-carbonyl)-6-oxo-3-(pyrazolo[1,5-a]pyrimidine-2-carbonyl)decahydro-pyrrolo [1,2-a][1,5]diazocin-5-yl)carbamoyl)naphthalen-2-yl)methyl) (phenoxy)phosphoryl)-L-alaninate] was tested. Which IC50 did it give?
**A.** > 3 µM

**Q.** `CCCOC(=O)[C@H](C)NP(=O)(Oc1ccccc1)C(F)c1ccc2ccc(C(=O)N[C@H]3CN(S(=O)(=O)CCC)CC[C@H]4CC[C@@H](C(=O)N5CCOCC5)N4C3=O)cc2c1` (stereo partly drawn) [Compound 427, propyl ((fluoro(7-(((5S,8S,10aR)-8-(morpholine-4-carbonyl)-6-oxo-3-(propylsulfonyl)decahydro-pyrrolo [1,2-a][1,5]diazocin-5-yl)carbamoyl)naphthalen-2-yl)methyl) (phenoxy)phosphoryl)-L-alaninate] was tested. Which IC50 did it give?
**A.** > 3 µM

**Q.** `CCCOC(=O)[C@H](C)NP(=O)(Oc1ccccc1)C(F)c1ccc2ccc(C(=O)N[C@H]3CN(C(=O)c4noc5ccc(OC)cc45)CC[C@H]4CC[C@@H](C(=O)N5CCOCC5)N4C3=O)cc2c1` (stereo partly drawn) [Compound 428, propyl ((fluoro(7-(((5S,8S,10aR)-3-(5-methoxybenzo [d]isoxazole-3-carbonyl)-8-(morpholine-4-carbonyl)-6-oxodecahydro-pyrrolo [1,2-a][1,5]diazocin-5-yl)carbamoyl)naphthalen-2-yl)methyl) (phenoxy)phosphoryl)-L-alaninate] was tested. Which IC50 did it give?
**A.** 0.1 to 1 µM

**Q.** With `CCCOC(=O)[C@H](C)NP(=O)(Oc1ccccc1)C(F)c1ccc2ccc(C(=O)N[C@H]3CN(C(=O)c4ncn5c4CCCC5)CC[C@H]4CC[C@@H](C(=O)N5CCOCC5)N4C3=O)cc2c1` (stereo partly drawn) [Compound 429, propyl ((fluoro(7-(((5S,8S,10aR)-8-(morpholine-4-carbonyl)-6-oxo-3-(5,6,7,8-tetrahydro-imidazo [1,5-a]pyridine-1-carbonyl)decahydropyrrolo [1,2-a][1,5]diazocin-5-yl)carbamoyl)naphthalen-2-yl)methyl) (phenoxy)phosphoryl)-L-alaninate] as the compound, how does the IC50 read?
**A.** > 3 µM
